# Source: US9988430B2, “Stable GLP-1 based GLP-1/glucagon receptor co-agonists” (Novo Nordisk A/S, priority 2014, dated 2018)
# *1 amine or outer side, *2 acyl side, *3 side chain or, on linkers, in order; H or OH if unused. Where a SMILES comes first, the peptide text is derived from it. Bridges are numbered along the chain shown (N, C = ends). Roman numbers before positions name the chains, in order. Side-chain parts run from the residue outwards. [ ]: non-standard residue; d: D form. The star is where a group is joined. C18 diacid = O=C(O)CCCCCCCCCCCCCCCCC(=O)*; γGlu = O=C(O)[C@H](CCC(=O)[*:2])N[*:1]; Desaminohistidyl = O=C(CCc1c[nH]cn1)*; AEEA = NCCOCCOCC(=O)O; Aib = CC(C)(N)C(=O)O
# Experiments:
# [1] = Assay (V): chemical stability assessment by RP-UPLC; format: physicochemical; settings: 14 days at 37° C. in phosphate buffer (pH 7.3)
# Protocol: Assay (V): Chemical Stability Assessment
# The purpose of this assay is to assess the chemical stability of the GLP-1 derivatives of the present invention in aqueous solutions.
# Chemical stability of GLP-1 derivatives may be investigated by RP-UPLC separation and UV detection. Lyophilized samples are dissolved in a 8 mM Phosphate buffer pH 8.6, followed by adjustment to pH 7.3 using HCl to a final concentration of 333 μM. Samples are incubated for 14 days at 5° C. and 37° C. followed by RP-UPLC analysis. Purity is defined as the area percentage of the main peak in relation to the total area of all integrated peaks in each chromatogram. Purity loss, also referred to herein as chemical degradation, after 14 days at 37° C. is determined as the difference in purity between the samples incubated at 5° C. and 37° C., divided by the purity of the sample after incubation for 14 days at 5° C.
# RP-UPLC analysis is performed using a Waters BEH130 2.1 mm×150 mm, 1.7 μm column operated at 50° C. and a flow rate of 0.4 mL/min using a mobile phase system consisting of A: 0.05% TFA in MQ-water, and B: 0.05% TFA in Acetonitrile. UV-detection is performed at 215 nm. The typical gradient profile used for most of the samples is shown below.
# For some individual derivatives eluting at substantially different retention times compared with the majority of derivatives, some adjustments to the gradient profile are made to better enable purity assessment comparison across samples.
# [2] = biological target: T1, human GLP-1 receptor (Homo sapiens, UniProt P43220); assay: Assay (I)(a): GLP-1 receptor potency, CRE luciferase reporter gene assay in BHK cells; format: cell-based; settings: BHK cells expressing human GLP-1 receptor, read-out: EC50 GLP-1R
# T1 construct: expressed in transfected cells; host or cells: membranes of BHK cells, parent line BHKTS13, clone FCW467-12A
# Summary of the method: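 BHK cells (clone FCW467-12A/KZ10-1), 5×10EE3/well, exposed 3 h at 37° C to compound at 1×10EE-13 to 1×10EE-6 M final in medium with 2% ovalbumin and 0.2% Pluronic F-68. Luciferase luminescence read; EC50 (pM) from four-parameter fit.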
# T1 sequence (P43220 24-463): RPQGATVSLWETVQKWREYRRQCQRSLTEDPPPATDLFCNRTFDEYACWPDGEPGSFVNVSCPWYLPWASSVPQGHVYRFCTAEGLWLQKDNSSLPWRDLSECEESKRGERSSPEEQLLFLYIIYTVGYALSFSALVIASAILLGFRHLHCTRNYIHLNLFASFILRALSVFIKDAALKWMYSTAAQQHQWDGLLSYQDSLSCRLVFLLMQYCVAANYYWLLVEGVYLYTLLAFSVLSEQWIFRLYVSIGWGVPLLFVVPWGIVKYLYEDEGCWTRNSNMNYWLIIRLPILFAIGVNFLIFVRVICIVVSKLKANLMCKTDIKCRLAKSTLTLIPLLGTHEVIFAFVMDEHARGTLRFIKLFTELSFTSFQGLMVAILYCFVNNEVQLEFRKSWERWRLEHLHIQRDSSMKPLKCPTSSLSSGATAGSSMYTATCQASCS
Chemical stability: Chemical degradation over 14 days at 37° C. [1] [%],EC50 [2] [pM],SMILES
0.1,,"CC[C@H](C)[C@H](NC(=O)[C@H](Cc1ccccc1)NC(=O)[C@H](CCC(=O)O)NC(=O)[C@H](CCCNC(=N)N)NC(=O)[C@H](C)NC(=O)[C@H](C)NC(=O)[C@H](CCCNC(=N)N)NC(=O)[C@H](C)NC(=O)[C@H](CCC(=O)O)NC(=O)[C@H](CC(C)C)NC(=O)[C@H](Cc1ccc(O)cc1)NC(=O)[C@H](CCCCN)NC(=O)[C@H](CO)NC(=O)[C@@H](NC(=O)[C@H](CC(=O)O)NC(=O)[C@H](CO)NC(=O)[C@@H](NC(=O)[C@H](Cc1ccccc1)NC(=O)[C@@H](NC(=O)CNC(=O)[C@H](Cc1c[nH]cn1)NC(=O)C(C)(C)NC(=O)CCc1c[nH]cn1)[C@@H](C)O)[C@@H](C)O)C(C)C)C(=O)N[C@@H](C)C(=O)N[C@@H](Cc1c[nH]c2ccccc12)C(=O)N[C@@H](CC(C)C)C(=O)N[C@@H](CC(C)C)C(=O)N[C@@H](CCCCNC(=O)CC[C@H](NC(=O)COCCOCCNC(=O)COCCOCCNC(=O)CC[C@H](NC(=O)CC[C@H](NC(=O)CCCCCCCCCCCCCCCCC(=O)O)C(=O)O)C(=O)O)C(=O)O)C(=O)NCC(=O)NCC(=O)NCC(=O)O [Example 31, N^ε34-[(4S)-4-carboxy-4-[[2-[2-[2-[[2-[2-[2-[[(4S)-4-carboxy-4-[[(4S)-4-carboxy-4-(17-carboxyheptadecanoylamino)butanoyl]amino]butanoyl]amino]ethoxy]ethoxy]acetyl]amino]ethoxy]ethoxy]acetyl]amino]butanoyl]-[Imp7,Aib8,His9,Lys18,Ala22,Arg23,Arg26,Leu33,Gly36]-GLP-1-(7-37)-peptide] (Desaminohistidyl-[Aib]HGTFTSDVSKYLEARAAREFIAWLLK([γGlu-AEEA-AEEA-γGlu-γGlu-C18 diacid])GGG-OH)"
,3,"CC[C@H](C)[C@H](NC(=O)[C@H](Cc1ccccc1)NC(=O)[C@H](CCC(=O)O)NC(=O)[C@H](CCCNC(=N)N)NC(=O)[C@H](C)NC(=O)[C@H](C)NC(=O)[C@H](CCCNC(=N)N)NC(=O)CNC(=O)[C@H](CCC(=O)O)NC(=O)[C@H](CC(C)C)NC(=O)[C@H](Cc1ccc(O)cc1)NC(=O)[C@H](CCCNC(=N)N)NC(=O)[C@H](CO)NC(=O)[C@@H](NC(=O)[C@H](CC(=O)O)NC(=O)[C@H](CO)NC(=O)[C@@H](NC(=O)[C@H](Cc1ccccc1)NC(=O)[C@@H](NC(=O)CNC(=O)[C@H](Cc1c[nH]cn1)NC(=O)C(C)(C)NC(=O)CCc1c[nH]cn1)[C@@H](C)O)[C@@H](C)O)C(C)C)C(=O)N[C@@H](C)C(=O)N[C@@H](Cc1c[nH]c2ccccc12)C(=O)N[C@@H](CC(C)C)C(=O)N[C@@H](CC(C)C)C(=O)N[C@@H](CCCCNC(=O)CC[C@H](NC(=O)CC[C@H](NC(=O)COCCOCCNC(=O)CC[C@H](NC(=O)CC[C@H](NC(=O)CCCCCCCCCCCCCCCCC(=O)O)C(=O)O)C(=O)O)C(=O)O)C(=O)O)C(=O)NCC(=O)N[C@@H](C)C(=O)NCC(=O)O [Example 35, N^ε34-[(4S)-4-carboxy-4-[[(4S)-4-carboxy-4-[[2-[2-[2-[[(4S)-4-carboxy-4-[[(4S)-4-carboxy-4-(17-carboxyheptadecanoylamino)butanoyl]amino]butanoyl]amino]ethoxy]ethoxy]acetyl]amino]butanoyl]amino]butanoyl]-[Imp7,Aib8,His9,Arg18,Arg23,Arg26,Leu33,Ala36]-GLP-1-(7-37)-peptide] (Desaminohistidyl-[Aib]HGTFTSDVSRYLEGRAAREFIAWLLK([γGlu-γGlu-AEEA-γGlu-γGlu-C18 diacid])GAG-OH)"
1.6,,"CC[C@H](C)[C@H](NC(=O)[C@H](Cc1ccccc1)NC(=O)[C@H](CCC(=O)O)NC(=O)[C@H](CCCNC(=N)N)NC(=O)[C@H](C)NC(=O)[C@H](C)NC(=O)[C@H](CCC(N)=O)NC(=O)CNC(=O)[C@H](CCC(=O)O)NC(=O)[C@H](CC(C)C)NC(=O)[C@H](Cc1ccc(O)cc1)NC(=O)[C@H](CCCNC(=N)N)NC(=O)[C@H](CO)NC(=O)[C@@H](NC(=O)[C@H](CC(=O)O)NC(=O)[C@H](CO)NC(=O)[C@@H](NC(=O)[C@H](Cc1ccccc1)NC(=O)[C@@H](NC(=O)CNC(=O)[C@H](Cc1c[nH]cn1)NC(=O)C(C)(C)NC(=O)CCc1c[nH]cn1)[C@@H](C)O)[C@@H](C)O)C(C)C)C(=O)N[C@@H](C)C(=O)N[C@@H](Cc1c[nH]c2ccccc12)C(=O)N[C@@H](CC(C)C)C(=O)N[C@@H](CC(C)C)C(=O)N[C@@H](CCCCNC(=O)CNC(=O)[C@H](CO)NC(=O)[C@H](CCC(=O)O)NC(=O)CNC(=O)[C@H](CO)NC(=O)CC[C@H](NC(=O)CC[C@H](NC(=O)CCCCCCCCCCCCCCCCC(=O)O)C(=O)O)C(=O)O)C(=O)N[C@H](C(N)=O)[C@@H](C)O [Example 8, N^ε34-[2-[[(2S)-2-[[(2S)-4-carboxy-2-[[2-[[(2S)-2-[[(4S)-4-carboxy-4-[[(4S)-4-carboxy-4-(17-carboxyheptadecanoylamino)butanoyl]amino]butanoyl]amino]-3-hydroxypropanoyl]amino]acetyl]amino]butanoyl]amino]-3-hydroxypropanoyl]amino]acetyl]-[Imp7,Aib8,His9,Arg18,Arg26,Leu33,Thr35]-GLP-1-(7-35)-peptide amide] (I: Desaminohistidyl-[Aib]HGTFTSDVSRYLEGQAAREFIAWLLKT-NH2 / II: {C18 diacid-γGlu-γGlu}-SGESG; amide I:27-II:C)"
0.4,,"CC[C@H](C)[C@H](NC(=O)[C@H](Cc1ccccc1)NC(=O)[C@H](CCC(=O)O)NC(=O)[C@H](CCCNC(=N)N)NC(=O)[C@H](C)NC(=O)[C@H](C)NC(=O)[C@H](CCC(N)=O)NC(=O)[C@H](CCC(=O)O)NC(=O)[C@H](CCC(=O)O)NC(=O)[C@H](CC(C)C)NC(=O)[C@H](Cc1ccc(O)cc1)NC(=O)[C@H](CCCCN)NC(=O)[C@H](CO)NC(=O)[C@@H](NC(=O)[C@H](CC(=O)O)NC(=O)[C@H](CO)NC(=O)[C@@H](NC(=O)[C@H](Cc1ccccc1)NC(=O)[C@@H](NC(=O)CNC(=O)[C@H](Cc1c[nH]cn1)NC(=O)C(C)(C)NC(=O)CCc1c[nH]cn1)[C@@H](C)O)[C@@H](C)O)C(C)C)C(=O)N[C@@H](C)C(=O)N[C@@H](Cc1c[nH]c2ccccc12)C(=O)N[C@@H](CC(C)C)C(=O)N[C@@H](CC(C)C)C(=O)N[C@@H](CCCCNC(=O)COCCOCCNC(=O)COCCOCCNC(=O)CC[C@H](NC(=O)CC[C@H](NC(=O)CCCCCCCCCCCCCCCCC(=O)O)C(=O)O)C(=O)O)C(=O)N[C@H](C(N)=O)[C@@H](C)O [Example 5, N^ε34-[2-[2-[2-[[2-[2-[2-[[(4S)-4-carboxy-4-[[(4S)-4-carboxy-4-(17-carboxyheptadecanoylamino)butanoyl]amino]butanoyl]amino]ethoxy]ethoxy]acetyl]amino]ethoxy]ethoxy]acetyl]-[Imp7,Aib8,His9,Lys18,Glu22,Arg26,Leu33,Thr35]-GLP-1-(7-35)-peptide amide] (Desaminohistidyl-[Aib]HGTFTSDVSKYLEEQAAREFIAWLLK([AEEA-AEEA-γGlu-γGlu-C18 diacid])T-NH2)"
